The NIST ThermoML archive (doi:10.1021/je2013704)

Test: mn = molality of the nth substance listed, in mol/kg
Conditions: Liquid, Vibrating tube method

[Ca+2].[Cl-].[Cl-] [calcium chloride] + O
mass density [kg/m3]
Conditions | 283.15 K | 298.12 K | 323.07 K | 348.04 K | 372.99 K | 397.97 K | 422.94 K | 447.94 K | 472.96 K
1050 kPa, m1 = 1 | 1087.02 | 1082.37 | 1072.02 | 1058.99 | 1043.73 | 1026.22 | 1006.8 | 985.31 | –
1050 kPa, m1 = 3 | – | 1225.07 | 1212.47 | 1198.77 | 1184.12 | 1167.99 | 1150.79 | 1132.22 | –
1050 kPa, m1 = 6 | – | 1388 | 1372.06 | 1356.18 | 1340.35 | 1324.03 | 1307.39 | 1290.23 | –
10020 kPa, m1 = 1 | 1090.65 | 1085.93 | 1075.48 | 1062.51 | 1047.42 | 1030.11 | 1011.09 | 989.96 | 966.77
10020 kPa, m1 = 3 | – | 1228.17 | 1215.47 | 1201.83 | 1187.2 | 1171.26 | 1154.33 | 1135.97 | 1116.32
10020 kPa, m1 = 6 | – | 1390.67 | 1374.67 | 1358.9 | 1343.09 | 1326.81 | 1310.4 | 1293.23 | 1275.65
19970 kPa, m1 = 1 | 1094.63 | 1089.7 | 1079.27 | 1066.31 | 1051.39 | 1034.38 | 1015.62 | 995.04 | 972.43
19970 kPa, m1 = 3 | – | 1231.3 | 1218.73 | 1205.15 | 1190.58 | 1174.82 | 1158.03 | 1139.99 | 1120.67
19970 kPa, m1 = 6 | – | 1393.43 | 1377.58 | 1361.82 | 1346.07 | 1329.91 | 1313.54 | 1296.61 | 1279.19
29900 kPa, m1 = 1 | 1098.56 | 1093.48 | 1082.99 | 1070.05 | 1055.27 | 1038.38 | 1020 | 999.9 | 977.79
29900 kPa, m1 = 3 | – | 1234.6 | 1221.98 | 1208.41 | 1193.94 | 1178.23 | 1161.68 | 1143.88 | 1124.82
29900 kPa, m1 = 6 | – | 1396.28 | 1380.48 | 1364.67 | 1349.03 | 1332.86 | 1316.63 | 1299.83 | 1282.53
39830 kPa, m1 = 1 | 1102.39 | 1097.27 | 1086.62 | 1073.75 | 1059.05 | 1042.42 | 1024.3 | 1004.57 | 983.04
39830 kPa, m1 = 3 | – | 1237.81 | 1225.08 | 1211.58 | 1197.14 | 1181.65 | 1165.21 | 1147.62 | 1129.01
39830 kPa, m1 = 6 | – | 1399.14 | 1383.27 | 1367.55 | 1351.92 | 1335.87 | 1319.7 | 1303.02 | 1285.96
49760 kPa, m1 = 1 | 1106.11 | 1100.95 | 1090.1 | 1077.29 | 1062.77 | 1046.36 | 1028.53 | 1009.07 | 988.08
49760 kPa, m1 = 3 | – | 1240.96 | 1228.11 | 1214.64 | 1200.38 | 1184.96 | 1168.72 | 1151.3 | 1132.99
49760 kPa, m1 = 6 | – | 1401.93 | 1385.94 | 1370.29 | 1354.76 | 1338.78 | 1322.71 | 1306.09 | 1289.19
59680 kPa, m1 = 1 | 1109.84 | 1104.52 | 1093.62 | 1080.87 | 1066.34 | 1050.19 | 1032.62 | 1013.53 | 992.91
59680 kPa, m1 = 3 | – | 1244 | 1231.21 | 1217.8 | 1203.46 | 1188.2 | 1172.12 | 1154.99 | 1136.86
59680 kPa, m1 = 6 | – | 1404.61 | 1388.68 | 1373.09 | 1357.57 | 1341.67 | 1325.64 | 1309.22 | 1292.45
68120 kPa, m1 = 1 | 1113.04 | 1107.46 | 1096.56 | 1083.78 | 1069.39 | 1053.29 | 1036 | 1017.15 | 996.86
68120 kPa, m1 = 3 | – | 1246.57 | 1233.72 | 1220.39 | 1206.1 | 1190.88 | 1174.94 | 1157.94 | 1140.04
68120 kPa, m1 = 6 | – | 1406.89 | 1390.9 | 1375.4 | 1359.88 | 1344 | 1328.12 | 1311.73 | 1295.04

[Cl-].[Cl-].[Mg+2] [magnesium chloride] + O
mass density [kg/m3]
Conditions | 283.15 K | 298.12 K | 323.07 K | 348.04 K | 372.99 K | 397.97 K | 422.94 K | 447.94 K | 472.96 K
1050 kPa, m1 = 1 | 1074.73 | 1070.86 | 1061.56 | 1049.32 | 1034.76 | 1017.83 | 999.03 | – | –
1050 kPa, m1 = 5 | – | 1298.01 | 1288.53 | 1278.25 | 1267.42 | 1255.66 | 1243.3 | 1230.19 | –
1100 kPa, m1 = 3 | 1200.48 | 1194.98 | 1185.53 | 1174.63 | 1162.6 | 1149.22 | 1134.62 | 1118.93 | –
10020 kPa, m1 = 1 | 1078.32 | 1074.43 | 1065.03 | 1052.8 | 1038.36 | 1021.72 | 1003.28 | 982.73 | 960.31
10020 kPa, m1 = 5 | – | 1300.39 | 1290.86 | 1280.63 | 1269.83 | 1258.16 | 1245.98 | 1232.81 | 1219.23
10100 kPa, m1 = 3 | 1203.26 | 1197.76 | 1188.36 | 1177.48 | 1165.51 | 1152.27 | 1137.91 | 1122.27 | 1105.72
19970 kPa, m1 = 1 | 1082.31 | 1078.17 | 1068.73 | 1056.56 | 1042.33 | 1025.91 | 1007.77 | 987.82 | 965.92
19970 kPa, m1 = 5 | – | 1302.84 | 1293.39 | 1283.18 | 1272.48 | 1260.88 | 1248.69 | 1235.76 | 1222.3
20100 kPa, m1 = 3 | 1206.45 | 1200.84 | 1191.36 | 1180.55 | 1168.64 | 1155.47 | 1141.36 | 1126 | 1109.63
29900 kPa, m1 = 1 | 1086.21 | 1081.96 | 1072.46 | 1060.31 | 1046.17 | 1029.97 | 1012.16 | 992.59 | 971.25
29900 kPa, m1 = 5 | – | 1305.37 | 1295.97 | 1285.71 | 1275.12 | 1263.46 | 1251.46 | 1238.61 | 1225.27
30100 kPa, m1 = 3 | 1209.48 | 1203.93 | 1194.33 | 1183.56 | 1171.77 | 1158.76 | 1144.67 | 1129.62 | 1113.5
39830 kPa, m1 = 1 | 1090.04 | 1085.7 | 1076 | 1063.92 | 1049.91 | 1033.96 | 1016.47 | 997.27 | 976.5
39830 kPa, m1 = 5 | – | 1307.91 | 1298.44 | 1288.26 | 1277.64 | 1266.15 | 1254.16 | 1241.42 | 1228.28
40100 kPa, m1 = 3 | 1212.45 | 1206.91 | 1197.32 | 1186.6 | 1174.82 | 1162.02 | 1147.96 | 1133.07 | 1117.27
49760 kPa, m1 = 1 | 1093.73 | 1089.34 | 1079.49 | 1067.47 | 1053.59 | 1037.86 | 1020.62 | 1001.73 | 981.41
49760 kPa, m1 = 5 | – | 1310.34 | 1300.8 | 1290.69 | 1280.15 | 1268.74 | 1256.84 | 1244.17 | 1231.18
50100 kPa, m1 = 3 | 1215.49 | 1209.79 | 1200.25 | 1189.47 | 1177.87 | 1165.1 | 1151.23 | 1136.51 | 1120.96
59680 kPa, m1 = 1 | 1097.42 | 1092.83 | 1082.98 | 1070.97 | 1057.17 | 1041.6 | 1024.61 | 1006.15 | 986.2
59680 kPa, m1 = 5 | – | 1312.81 | 1303.27 | 1293.17 | 1282.6 | 1271.25 | 1259.41 | 1246.88 | 1234.02
60100 kPa, m1 = 3 | 1218.46 | 1212.66 | 1203.13 | 1192.42 | 1180.77 | 1168.09 | 1154.39 | 1139.92 | 1124.6
68120 kPa, m1 = 1 | 1100.57 | 1095.78 | 1085.82 | 1073.88 | 1060.13 | 1044.71 | 1027.95 | 1009.73 | 990.1
68120 kPa, m1 = 5 | – | 1314.82 | 1305.22 | 1295.26 | 1284.68 | 1273.36 | 1261.6 | 1249.11 | 1236.38
68600 kPa, m1 = 3 | 1220.98 | 1215.18 | 1205.42 | 1194.89 | 1183.21 | 1170.63 | 1157.07 | 1142.62 | 1127.48
